EC90 data for seven compounds are collected here from US20140378416A1, “SILYL-CONTAINING HETEROCYCLIC COMPOUNDS AND METHODS OF USE THEREOF FOR THE TREATMENT OF VIRAL DISEASES” (priority 2011, published 2014).

One test has as its system HCV replicon 1a. In words: Cell-based HCV replicon assay (TaqMan), genotype 1a replicon. As to conditions: Hepatitis C virus, 72 h, HCV 1a replicon cells, replicon RNA by TaqMan on day 3; EC90 = concentration for ΔCT=3.2 over baseline. (In general: A replicon is a self-replicating genome or part of one, used to study replication in cells.)
The next test relates to HCV replicon 1b. In words: Cell-based HCV replicon assay (TaqMan), genotype 1b replicon. The note with it: Hepatitis C virus, 72 h, HCV 1b replicon cells, replicon RNA by TaqMan on day 3; EC90 = concentration for ΔCT=3.2 over baseline.
In the next test the test system is HCV replicon 1a Y93H. In words: Cell-based HCV replicon assay (TaqMan), genotype 1a Y93H mutant replicon. The note with it: Hepatitis C virus, 72 h, read-out: 1a Y93H EC90, HCV 1a Y93H mutant replicon cells, replicon RNA by TaqMan on day 3; EC90 = concentration for ΔCT=3.2 over baseline.
Another test relates to HCV replicon 2b. In words: Cell-based HCV replicon assay (TaqMan), genotype 2b replicon. As to conditions: Hepatitis C virus, 72 h, read-out: 2b EC90, HCV 2b replicon cells, replicon RNA by TaqMan on day 3; EC90 = concentration for ΔCT=3.2 over baseline.

Take `COC(=O)N[C@H](C(=O)N1C[Si](C)(C)C[C@H]1c1nc(Cl)c(-c2ccc(-c3ccc(-c4[nH]c([C@@H]5C[C@H]6C[C@H]6N5C(=O)[C@@H](NC(=O)OC)C5CC5)nc4Cl)cc3)cc2)[nH]1)C1CC1` [Compound 53]: the EC90 (in general, the concentration needed for an effect of 90%) came to 0.01 nM in the test on HCV replicon 1a, 0.01 nM in the test on HCV replicon 1b, 26.8 nM in the test with HCV replicon 1a Y93H and 11.3 nM in the test on HCV replicon 2b.

With `CCN(CC)[C@@H](C(=O)N1C[Si](C)(C)C[C@H]1c1nc(Cl)c(-c2ccc(-c3ccc(-c4[nH]c([C@@H]5C[C@H]6C[C@H]6N5C(=O)[C@@H](c5ccccc5)N(CC)CC)nc4Cl)cc3)cc2)[nH]1)c1ccccc1` [Compound 55], the EC90 in the test with HCV replicon 1a turned out to be 0.047 nM; with HCV replicon 1b it was 0.019 nM; with HCV replicon 1a Y93H it was 16.4 nM; in the test on HCV replicon 2b it was 0.16 nM.

Take `COC(=O)N[C@H](C(=O)N1C[C@H](F)C[C@H]1c1ncc(-c2ccc(C#Cc3ccc(-c4cnc([C@@H]5C[Si](C)(C)CN5C(=O)[C@@H](NC(=O)OC)C(C)C)[nH]4)cc3)cc2)[nH]1)C(C)C` [Compound 58]: the EC90 is over 1 nM in the test on HCV replicon 1a, 0.03 nM in the test with HCV replicon 1b, over 100 nM in the test with HCV replicon 1a Y93H and over 100 nM in the test with HCV replicon 2b.

In the case of `COC(=O)N[C@H](C(=O)N1C[C@H](F)C[C@H]1c1ncc(-c2ccc(C#Cc3ccc(-c4cnc([C@@H]5C[Si](C)(C)CN5C(=O)[C@@H](NC(=O)OC)C(C)OC)[nH]4)cc3)cc2)[nH]1)C(C)C` (stereo partly shown) [Compound 59], the EC90 in the test with HCV replicon 1a was over 1 nM; in the test on HCV replicon 1b it was 0.02 nM; in the test with HCV replicon 1a Y93H it was over 100 nM; in the test on HCV replicon 2b, over 100 nM.

As for `COC(=O)N[C@H](C(=O)N1C[Si](C)(C)C[C@H]1c1ncc(-c2ccc(-c3ccc(-c4ncc([C@@H]5C[C@H]6C[C@H]6N5C(=O)[C@@H](NC(=O)OC)C(C)C)[nH]4)cc3)cc2)[nH]1)C(C)C` [Compound 69], the EC90 was 0.84 nM in the test on HCV replicon 1a, 0.019 nM in the test with HCV replicon 1b, over 100 nM in the test on HCV replicon 1a Y93H and 371 nM in the test on HCV replicon 2b.

With `CCS(=O)(=O)N1CCC(NC(=O)c2ccc(-c3ccc(-c4cnc([C@@H]5C[Si](C)(C)CN5C(=O)[C@@H](NC(=O)OC)C(C)C)[nH]4)cc3)cc2)CC1` [Compound 75], the 90% effect concentration (EC90) is 159 nM in the test with HCV replicon 1a, 0.028 nM in the test with HCV replicon 1b, over 1000 nM with HCV replicon 1a Y93H and over 1000 nM with HCV replicon 2b.

In the case of `COC(=O)N[C@H](C(=O)N1CCC[C@H]1C(=O)Nc1n[nH]c2ccc(-c3ccc(-c4cnc([C@@H]5C[Si](C)(C)CN5C(=O)[C@@H](NC(=O)OC)C(C)C)[nH]4)cc3)cc12)C(C)C` [Compound 79], the EC90 was over 1 nM in the test on HCV replicon 1a, over 1 nM in the test with HCV replicon 1b, over 100 nM in the test on HCV replicon 1a Y93H and over 100 nM with HCV replicon 2b.
